Results as given in patent US20210341378A1, “HIGH-CONTENT IMAGING OF MICROFLUIDIC DEVICES” (priority 2019, published 2021).

Tests used:
[1] = system: microfluidic devices seeded with human liver cells; experiment: Albumin secretion (ELISA), human Liver-Chip; type: cell-based
Text: Prior to cell seeding, microfluidic devices, in this case S-I Chips (Emulate, Inc. Boston, Mass., USA), were functionalized using Emulate's proprietary protocols and reagents (ER™), including those described herein. After surface functionalization, both channels of the microfluidic device were coated with species-specific extracellular matrices (ECM). For the human bound microfluidic device, a mixture of collagen type I (Corning, Corning, N.Y., USA) and fibronectin, e.g. bovine, (Gibco) was used; for the rat bound microfluidic devices a mixture of collagen type IV, e.g. human placenta, (Sigma-Aldrich, St. Louis, Mo., USA) and fibronectin (Gibco) was used; for the dog bound microfluidic devices a mixture of collagen I (Corning), collagen type IV (Sigma-Aldrich), and fibronectin (Gibco) was used. […] For the dual-cell culture model (hepatocytes and endothelial cells), the LSECs were seeded at a concentration of 2-4 million cells/mL in the lower vascular channel. […] After cell seeding, the upper channel of the microfluidic device was maintained in William's E Medium (WEM) containing Glutamax (Gibco), ITS+ (Corning), dexamethasone (Sigma-Aldrich), ascorbic acid (Sigma-Aldrich), fetal bovine serum (FBS) (Sigma-Aldrich), and Penicillin/Streptomycin (Sigma-Aldrich). The vascular channel of the microfluidic device was maintained with species-specific endothelial media (Emulate, Inc.). Two days after seeding, the microfluidic devices were connected to the Human Emulation System™ (Emulate, Inc.), as described in part herein, and both of the microfluidic device channels were perfused at 30 μL/hr to provide a continuous supply of fresh media for the duration of the experiments. Albumin secretion from the upper channel was quantified using ELISA kits for human, rat, and dog models effluent samples (human and rat: Abcam; dog: Immunology Consultants Laboratory, Inc., Portland, Oreg., USA) and the assays were performed according to the protocol provided by each vendor.

[2] = system: microfluidic devices seeded with rat liver cells; experiment: Albumin secretion (ELISA), rat Liver-Chip; type: cell-based; settings: FIAU 1, 10 and 30 μM, rat chip
Text: Prior to cell seeding, microfluidic devices, in this case S-I Chips (Emulate, Inc. Boston, Mass., USA), were functionalized using Emulate's proprietary protocols and reagents (ER™), including those described herein. After surface functionalization, both channels of the microfluidic device were coated with species-specific extracellular matrices (ECM). For the human bound microfluidic device, a mixture of collagen type I (Corning, Corning, N.Y., USA) and fibronectin, e.g. bovine, (Gibco) was used; for the rat bound microfluidic devices a mixture of collagen type IV, e.g. human placenta, (Sigma-Aldrich, St. Louis, Mo., USA) and fibronectin (Gibco) was used; for the dog bound microfluidic devices a mixture of collagen I (Corning), collagen type IV (Sigma-Aldrich), and fibronectin (Gibco) was used. […] For the dual-cell culture model (hepatocytes and endothelial cells), the LSECs were seeded at a concentration of 2-4 million cells/mL in the lower vascular channel. […] Albumin secretion from the upper channel was quantified using ELISA kits for human, rat, and dog models effluent samples (human and rat: Abcam; dog: Immunology Consultants Laboratory, Inc., Portland, Oreg., USA) and the assays were performed according to the protocol provided by each vendor.

[3] = system: microfluidic devices seeded with human liver cells; experiment: Release of DILI biomarkers (miR-122, alpha-GST, keratin 18), human Liver-Chip; type: cell-based
Text: Exemplary Biomarker, e.g. DILI: Keratin 18 levels were quantified in human model effluent samples from both the hepatocyte and vascular channels using the M65 EpiDeath CK18 ELISA Kit (DiaPharma, Detroit, Mich., USA). The assay was run following the vendor protocol using a standard curve ranging from 0-5,000 U/L. Additionally, a standard curve ranging from 0-500 U/L was generated independently for quality control.
Exemplary Biomarker, e.g. DILI: Alpha Glutathione S-Transferase (α-GST) levels were quantified in human model effluent samples from the upper channel using an ELISA kit (DiaPharma). The assay was run following the vendor protocol using a standard curve ranging from 0-64 μg/L. Additionally, a standard curve ranging from 0-50 μg/L was generated independently for quality control.
Exemplary Biomarker, e.g. DILI: Mir-122: Isolation of micro-RNAs was performed on upper and lower chamber eluates using Qiagen's (Hilden, Germany) miRNA isolation kit for serum and plasma. A total volume of 50 μL was used for isolation. Isolation was performed according to manufacturer's protocol using a 56.5 pM oligonucleotide spike-in control. Samples were eluted with 14 μL RNase-free water. Reverse transcription was performed using Thermo Fisher Scientific's TaqMan™ MicroRNA Reverse Transcription Kit according to the manufacturer's protocol. A total reaction volume of 15 μL was used. Real-time PCR was performed using Thermo Fisher Scientific's TaqMan™ Micro-RNA Assays according to manufacturer's protocol. A total reaction volume of 10 μL was used. Normalized rrCt was used for fold-change analysis.

[4] = system: microfluidic devices seeded with human liver cells; experiment: Cytokine release (IL-6, MCP-1, IP-10) from vascular channel, human Liver-Chip; type: cell-based; settings: for release of IL-6 / release of MCP-1: 14 days
Description: Cytokines: Release of IL-6, MCP-1, and IP-10 from the vascular channel was quantified using U-PLEX biomarker human assays (Meso Scale Diagnostics, Rockville, Md., USA) and the assays were performed according to the protocol provided by the vendor.

[5] = system: microfluidic devices seeded with human liver cells; experiment: Lipid accumulation (Nile red / AdipoRed), human Liver-Chip; type: cell-based
Text: (§1) Microfluidic devices seeded with liver cells were stained in the upper channel with 5(6)-Carboxy-2′,7′-dichlorofluorescein diacetate (CDFDA) (ThermoFisher) to visualize bile canaliculi and MRP2 activity, cholyl-lysyl-fluorescein (CLF) (Corning) to visualize bile canaliculi and BSEP activity, Nile red (ThermoFisher) or AdipoRed (Lonza) to visualize lipid droplet accumulation, Tetramethylrhodamine, methyl ester (TMRM) (ThermoFisher) to visualize active mitochondria, and CellROX® (ThermoFisher) to visualize cellular oxidative stress. Each staining solution was prepared in blank medium or compound dosing medium and added to the upper channel, incubated for 15 minutes at 37° C., and washed three times with medium. The stained microfluidic devices were imaged using a specific filter, and were de-blurred with Olympus cellSens software. Using ImageJ-Fiji, the fluorescent channel images were histogram adjusted to remove background, followed by fluorescence quantification using the Integrated Density calculation function.
(§2) The stained microfluidic devices were imaged using the TRITC filter, and were de-blurred with Olympus cellSens software. Using ImageJ-Fiji, the fluorescent channel images were histogram adjusted to remove background, followed by fluorescence quantification using the Integrated Density calculation function. N=5 FOVs per microfluidic device were analyzed for conditions: vehicle (0.1% DMSO), FIAU dosing groups, and MTX dosing groups.

[6] = system: microfluidic devices seeded with rat liver cells; experiment: Lipid accumulation (Nile red), rat Liver-Chip; type: cell-based; settings: FIAU 1, 10 and 30 μM for 10 days
Text: as §1, with “The stained microfluidic devices were imaged using a specific filter, and were de-blurred with Olympus cellSens software.” left out
as §2

[7] = cited from earlier work
[8] = system: microfluidic devices seeded with human liver cells; experiment: ROS (CellROX) live staining, human Liver-Chip; type: cell-based; settings: TAK-875, human chip
stellate cells = experiment: Stellate cell activation (alpha-SMA), human Liver-Chip; type: cell-based; settings: TAK-875 10 or 30 uM for 15 days
Description: Microfluidic devices seeded with liver cells and static sandwich plate cultures were fixed with 4% paraformaldehyde for 15 minutes at room temperature, washed with PBS, and permeabilized (saponin 1% with 10% serum in PBS). Blocking and incubation with the primary antibodies (overnight in PBS containing 1% BSA or PBS containing 10% serum and 1% BSA) was followed by a two-hour incubation with secondary antibodies (Cell Signaling, Danvers, Mass., USA) in the same blocking buffer. Immunostaining was performed with specific primary antibodies (anti-MRP2, anti-stabilin-1, anti-BSEP, anti-α-SMA, anti-CD68; Abcam, Cambridge, Mass., USA) and images were acquired with either an Olympus fluorescence microscope (IX83) or Zeiss confocal microscope (AxiovertZ1 LSM880).
The number of CD68- or α-SMA-positive cells in the vascular channel in each group was counted in each field of view ([…]) and quantified.
The fluorescent channel (588) was first background subtracted and processed using the median filter of Image J. After processing, the signal was thresholded using adaptive thresholding function of Image J (Otsu method) to extract fluorescent regions and to measure the relative intensity of the fluorescent signal. N=4 to 6 FOVs per microfluidic device from each microfluidic device were analyzed. […]

MRP2 = molecular target: T1, MRP2 (Homo sapiens, UniProt Q92887); experiment: Biliary efflux of CDFDA (MRP2 activity), human Liver-Chip; type: cell-based; settings: TAK-875 3, 10, 30 μM
T1 construct: Primary rat, dog or human hepatocytes were cultured in the upper parenchymal channel; endogenous in cells; host or cells: primary human hepatocytes in a microfluidic Liver-Chip
T1 sequence (Q92887 whole entry): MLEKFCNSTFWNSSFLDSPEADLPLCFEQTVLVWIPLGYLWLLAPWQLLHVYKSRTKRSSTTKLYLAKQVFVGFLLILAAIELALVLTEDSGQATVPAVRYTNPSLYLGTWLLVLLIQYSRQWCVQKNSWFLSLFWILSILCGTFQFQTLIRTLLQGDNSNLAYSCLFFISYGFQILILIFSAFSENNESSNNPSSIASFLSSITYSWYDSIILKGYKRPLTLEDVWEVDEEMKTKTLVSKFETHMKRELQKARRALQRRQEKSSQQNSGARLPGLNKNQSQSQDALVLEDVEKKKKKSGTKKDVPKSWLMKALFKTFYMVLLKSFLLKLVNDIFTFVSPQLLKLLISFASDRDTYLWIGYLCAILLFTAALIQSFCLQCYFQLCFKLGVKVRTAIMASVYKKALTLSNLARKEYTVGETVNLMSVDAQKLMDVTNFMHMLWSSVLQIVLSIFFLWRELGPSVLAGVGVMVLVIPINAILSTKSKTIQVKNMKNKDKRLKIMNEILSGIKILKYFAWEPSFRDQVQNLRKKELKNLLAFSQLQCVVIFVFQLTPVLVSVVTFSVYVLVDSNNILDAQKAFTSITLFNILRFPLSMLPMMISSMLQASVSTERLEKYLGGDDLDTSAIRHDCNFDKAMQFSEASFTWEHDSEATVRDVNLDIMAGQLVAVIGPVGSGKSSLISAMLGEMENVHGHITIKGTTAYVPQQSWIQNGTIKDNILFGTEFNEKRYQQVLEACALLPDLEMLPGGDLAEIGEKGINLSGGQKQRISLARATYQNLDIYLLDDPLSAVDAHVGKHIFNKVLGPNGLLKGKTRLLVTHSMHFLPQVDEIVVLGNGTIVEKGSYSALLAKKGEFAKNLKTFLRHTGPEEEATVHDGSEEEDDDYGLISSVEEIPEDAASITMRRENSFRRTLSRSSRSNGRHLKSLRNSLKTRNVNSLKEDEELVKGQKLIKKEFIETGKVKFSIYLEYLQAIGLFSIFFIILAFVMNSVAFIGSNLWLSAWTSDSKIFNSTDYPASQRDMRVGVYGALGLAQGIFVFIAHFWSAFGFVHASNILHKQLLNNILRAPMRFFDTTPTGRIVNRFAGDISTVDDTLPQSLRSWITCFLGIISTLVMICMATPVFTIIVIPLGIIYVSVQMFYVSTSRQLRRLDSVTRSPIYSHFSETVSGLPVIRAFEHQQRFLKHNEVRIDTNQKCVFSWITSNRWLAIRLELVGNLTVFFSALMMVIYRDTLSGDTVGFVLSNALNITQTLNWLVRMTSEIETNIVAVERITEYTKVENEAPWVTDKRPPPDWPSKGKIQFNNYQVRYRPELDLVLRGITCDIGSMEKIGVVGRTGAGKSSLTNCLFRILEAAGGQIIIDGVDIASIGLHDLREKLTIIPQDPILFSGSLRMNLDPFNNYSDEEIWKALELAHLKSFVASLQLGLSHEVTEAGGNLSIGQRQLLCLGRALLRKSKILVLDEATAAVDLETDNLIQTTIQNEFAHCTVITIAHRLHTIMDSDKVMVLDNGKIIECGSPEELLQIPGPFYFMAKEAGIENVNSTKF
Description: Both a brightfield and a fluorescence image was taken from each field of view. […] CLF-labeled regions that most likely to corresponded to bile canaliculi were automatically identified based on geometric criteria and retained only if they co-localized with a bile canaliculi signal in channel 1. […] These criteria were determined empirically using a small test set of images and then applied to images for the analysis. […] The data for treated and control samples were quantified by computing the area percentage of CLF-labeled bile canaliculi within each field of view (FOV).

[9] = system: mitochondrial membrane potential; experiment: TMRM staining (mitochondrial membrane potential), human Liver-Chip; type: cell-based; settings: TAK-875 3, 10, 30 μM, 8 or 15 days
Text: as §1

With O=c1[nH]c(=O)n([C@@H]2O[C@H](CO)[C@@H](O)[C@@H]2F)cc1I [FIAU, fialuridine] the “concentrations giving dose-dependent decline in albumin secretion” value ([1]; FIAU, human quadruple-cell chip, 7 days) was at least 1000 nM, the “hepatocyte function (albumin secretion)” value [2] was “no effects” and the “keratin 18 (K-18)” value ([3]; FIAU 10 days, human chip) was “release”. For the same compound, the miR122 ([3]; FIAU 10 days, human chip) was “release”, the α-GST ([3]; FIAU 10 days, human chip) was “release” and the “cytokines/chemokines including IP-10” value ([4]; treated Liver-Chips (discussion)) was “release”. The lipid accumulation ([5]; daily 1, 10 and 30 μM for 10 days, human quadruple-cell chip) was “dose-dependent increase”, the lipid accumulation [6] was “no effects” and the “patients with liver failure and deaths” value ([7]; Phase II clinical trials) was 5/15.

For Cc1cc(OCCCS(C)(=O)=O)cc(C)c1-c1cccc(COc2ccc3c(c2)OC[C@H]3CC(=O)O)c1 [TAK-875], the albumin production ([1]; TAK-875 30 μM, 14 days) was “decreased”, the “formation of ROS” value [8] was “increase” and the K18 ([3]; TAK-875 30 μM, 14 days) was “increased release”. For the same compound, the “release of IL-6” value ([4]; TAK-875 10 μM) was “significant release”, the “release of MCP-1” value ([4]; TAK-875 10 μM) was “significant release” and the “release of IL-6” value ([4]; TAK-875 30 μM) was “not observed”. For the same compound, the “release of MCP-1” value ([4]; TAK-875 30 μM) was “not observed”, the lipid droplet accumulation ([5]; TAK-875, end of the 2-week treatment) was “detected” and the “% aSMA positive area from the vascular channel” value (stellate cells) was “Not significant”. The “biliary efflux of the MRP2 substrate CDFDA” value (MRP2) was “dose-dependent decrease”, the “mitochondrial potential sensitive dye TMRM” value [9] was “dose-related and time-dependent redistribution” and the “incidence of treatment-related elevations in transaminases” value ([7]; human, in vivo) was 2.7%.
